Results: patent publication US11241393B2 (priority 2020, dated 2022)
Where two headings read alike, the source gives them in different places.

Experiments:
[1] = test system: influenza virus A/Aichi/2/68 (H3N2); test: organism not typed; assay type: cell-based; conditions: for IC50: MDCK
in vitro [2] = conditions: dog
in vitro [3] = conditions: human
in vitro [4] = test: in vitro
human cytomegalovirus = assay type: cell-based
in vitro [5] = conditions: cattle
in vitro [6] = conditions: human; remark: listed apart in the source
vaccinia virus = assay type: cell-based; conditions: in vitro, cell culture
[7] = rat, in vivo

## CC(N)C12CC3CC(CC(C3)C1)C2 (centres unmarked) [Rimantadine, reference compound]
[1]
  SI: 3133.0
  IC50: 0.03 µM
In vitro [2]
  CC50: 94 µM

## CCCCCCCCCC[Si](C)(C)CCOC1OC(CO)C(O)C(O)C1O [Sil 2, 2-(Dimethyldecylsilyl)ethyl-b-D-glucopyranoside]
[1]
  SI: 2.43
  antiviral activity toward influenza virus A(H3N2): marked activity
  IC50: 7.38 µM
HEp-2 cells
  cytotoxicity (summary in words): wider toxicity
In vitro [3]
  CC50: < 20 µM
In vitro [4]
  CC50: < 20 µM
CT cells
  cytotoxicity (summary in words): wider toxicity
MDCK cells
  cytotoxicity (summary in words): wider toxicity
MDCK cells; dog
  CC50: 18 µM
Human cytomegalovirus
  antiviral activity against human cytomegalovirus: Close to borderline effect
In vitro [5]
  CC50: < 20 µM
In vitro [2]
  CC50: < 20 µM

## CCCCCCCCCCCC[Si](C)(C)CCOC1OC(CO)C(O)C(O)C1O [Sil 3, 2-(Dimethyldodecylsilyl)ethyl-b-D-glucopyranoside]
[1]
  SI: 2.9
  antiviral activity toward influenza virus A(H3N2): marked activity
  IC50: 6.6 µM
In vitro [4]
  CC50: < 20 µM
MDCK cells; dog
  CC50: 19.2 µM
In vitro [5]
  CC50: < 20 µM
In vitro [2]
  CC50: < 20 µM

## CCCC[Si](C)(C)OC1OC(CO)C(O)C(O)C1O [Sil 7, Butyldimethylsilyl-a-D-galactopyranoside]
Human cytomegalovirus
  antiviral activity against human cytomegalovirus: Close to borderline effect
In vitro [2]
  CC50: 444 µM
In vitro [6]
  CC50: < 20 µM

## CCCCCCCCCCCC[Si](C)(C)OC1OC(CO)C(O)C(O)C1O [Sil 9, Dodecyldimethylsilyl-a-D-glucopyranoside]
Vaccinia virus
  antiviral activity versus vaccinia virus: marked activity
In vitro [2]
  CC50: 444 µM

## CCCCCCCCCCCCCCCCCC[Si](CCCCCCCCCCCCCCCCCC)(OC1OC(COC(C)=O)C(OC(C)=O)C(OC(C)=O)C1OC(C)=O)OC1OC(COC(C)=O)C(OC(C)=O)C(OC(C)=O)C1OC(C)=O [Sil 15, 1-O-Dioctadecylsilyl-di(2,3,4,6-O-tetraacetyl-b-D-galactopyranoside)]
Human cytomegalovirus; in vitro, cell culture
  antiviral activity against human cytomegalovirus: Close to borderline effect

## CCCCCCCCCCCC[Si](C)(C)O[C@@H]1O[C@H](COC(C)=O)[C@@H](OC(C)=O)[C@H](OC(C)=O)[C@H]1OC(C)=O [Sil 19, 1-O-Dimethyl(dodecyl)silyl-(2,3,4,6-O-tetraacetyl-b-D-glucopyranoside)]
MDCK cells
  CC50: 65.5 µM
Human cytomegalovirus
  antiviral activity against human cytomegalovirus: Close to borderline effect

## CCCCCCCCCCCCCCCCCC[Si](C)(C)O[C@@H]1O[C@H](COC(C)=O)[C@@H](OC(C)=O)[C@H](OC(C)=O)[C@H]1OC(C)=O [Sil 20, 1-O-Dimethyl(octadecyl)silyl-(2,3,4,6-O-tetraacetyl-b-D-glucopyranoside)]
MDCK cells
  CC50: 2530 µM
Human cytomegalovirus
  antiviral activity toward the cytomegalovirus: marked activity

## CCCCCCCCCCCC(=O)O[Si](OC(=O)CCCCCCCCCCC)(c1ccccc1)c1ccccc1 [Sil 25, Di(dodecanoyloxy)diphenylsilane]
[1]
  SI: 5.82
  antiviral activity toward influenza virus A(H3N2): marked activity
  IC50: 9.6 µM
In vitro [4]
  CC50: < 20 µM
In vitro [2]
  CC50: 55.9 µM

## CCCCCCCCCCCCCCCC(=O)O[Si](OC(=O)CCCCCCCCCCCCCCC)(c1ccccc1)c1ccccc1 [Sil 27, Di(hexadecanoyloxy)diphenylsilane]
Human cytomegalovirus
  SI: 30.9
  antiviral activity against human cytomegalovirus: marked activity
In vitro [2]
  CC50: 317 µM

## CCCCCCCCCCC(=O)O[Si](C)(C)OC(=O)CCCCCCCCCC [Sil 34, Di(undecanoyloxy)dimethylsilane]
Human cytomegalovirus
  antiviral activity against human cytomegalovirus: Close to borderline effect
In vitro [2]
  CC50: 2530 µM

## N.N.[Cl-].[Cl-].[OH-].[OH-].[Pt+4] [Standard Cis-Oxoplatin, cis-oxoplatin]
[7]; iv
  tissues with highest platinum concentration compared with the other treatment groups: highest platinum concentration in the stomach and the liver
[7]; po
  tissues with highest platinum concentration compared with the other treatment groups: highest accumulation of platinum in the spleen and lungs
